According to paper PMC10041525, “New Dual Inhibitors of Bacterial Topoisomerases with Broad-Spectrum Antibacterial Activity and In Vivo Efficacy against Vancomycin-Intermediate Staphylococcus aureus” (Journal of Medicinal Chemistry, 2023):
Converted amounts (≈) assume the structure as drawn. Where two headings read alike, the source gives them in different places.

What was measured:
P. aeruginosa ATCC 27853 = system: P. aeruginosa ATCC 27853; parameters: method as in earlier work; settings: QC range for P. aeruginosa ATCC 27853, ref CLSI; cited from earlier work
[1] = system: Haemophilus influenzae (n = 14); test: MIC broth microdilution at IHMA Europe; format: cell-based, H. influenzae; settings: for MIC: Haemophilus influenzae, read-out: MIC
S. pneumoniae (n = 12) = test: MIC broth microdilution at IHMA Europe; format: cell-based; settings: for MIC: Streptococcus pneumoniae, read-out: MIC
E. coli ATCC 25922 = system: E. coli ATCC 25922; parameters: method as in earlier work; settings: QC range for E. coli ATCC 25922, ref CLSI; cited from earlier work
E. faecalis ATCC 29212 = system: E. faecalis ATCC 29212; parameters: method as in earlier work; settings: QC range for E. faecalis ATCC 29212, ref CLSI; cited from earlier work
H. influenzae ATCC 49247 = system: H. influenzae ATCC 49247; parameters: method as in earlier work; settings: QC range for H. influenzae ATCC 49247, ref CLSI; cited from earlier work

Row | SMILES | MIC, CLSI Range (P. aeruginosa ATCC 27853) | MIC ([1]; H. influenzae IHMA N° 1227715) [µg/mL] | MIC ([1]; H. influenzae IHMA N° 1241620) [µg/mL] | MIC ([1]; H. influenzae IHMA N° 1244149) [µg/mL] | MIC ([1]; H. influenzae IHMA N° 1249803) [µg/mL] | MIC ([1]; H. influenzae IHMA N° 1254355) [µg/mL] | MIC ([1]; H. influenzae IHMA N° 1258580) [µg/mL] | MIC ([1]; H. influenzae IHMA N° 1262734) [µg/mL] | MIC ([1]; H. influenzae IHMA N° 1272723) [µg/mL] | MIC ([1]; H. influenzae IHMA N° 1286846) [µg/mL] | MIC ([1]; H. influenzae IHMA N° 1337530) [µg/mL] | MIC ([1]; H. influenzae IHMA N° 1440085) [µg/mL] | MIC ([1]; H. influenzae IHMA N° 1479509) [µg/mL] | MIC ([1]; H. influenzae IHMA N° 1952952) [µg/mL] | MIC ([1]; H. influenzae IHMA N° 2047461) [µg/mL] | MIC (S. pneumoniae (n = 12); S. pneumoniae IHMA N° 1775387) [µg/mL] | MIC (S. pneumoniae (n = 12); S. pneumoniae IHMA N° 1776057) [µg/mL] | MIC (S. pneumoniae (n = 12); S. pneumoniae IHMA N° 1785617) [µg/mL] | MIC (S. pneumoniae (n = 12); S. pneumoniae IHMA N° 1800765) [µg/mL] | MIC (S. pneumoniae (n = 12); S. pneumoniae IHMA N° 1811259) [µg/mL] | other results
1 | C[C@@H](O)[C@H]1C(=O)N2C(C(=O)O)=C(SCCNC=N)C[C@H]12 [Imipenem, imipenem] | 1 to 4 µg/mL | 1 (≈ 3.34 µM) | 0.5 (≈ 1.67 µM) | 0.5 (≈ 1.67 µM) | 0.25 (≈ 0.835 µM) | 0.5 (≈ 1.67 µM) | 0.5 (≈ 1.67 µM) | 0.5 (≈ 1.67 µM) | 0.5 (≈ 1.67 µM) | 0.5 (≈ 1.67 µM) | 1 (≈ 3.34 µM) | 0.12 (≈ 0.401 µM) | 0.5 (≈ 1.67 µM) | 0.12 (≈ 0.401 µM) | 0.5 (≈ 1.67 µM) | 0.25 (≈ 0.835 µM) | 0.25 (≈ 0.835 µM) | 0.25 (≈ 0.835 µM) | ≤ 0.015 | 0.12 (≈ 0.401 µM) | Cumulative % at MIC ([1]; MIC 0.5 µg/mL): 85.7%; No. of isolates at MIC ([1]; MIC 0.5 µg/mL): 9; Cumulative % at MIC ([1]; MIC 1 µg/mL): 100.0%; No. of isolates at MIC ([1]; MIC 1 µg/mL): 2; Cumulative % at MIC (S. pneumoniae (n = 12); MIC 0.06 µg/mL): 25.0%; No. of isolates at MIC (S. pneumoniae (n = 12); MIC 0.06 µg/mL): 1; Cumulative % at MIC (S. pneumoniae (n = 12); MIC 1 µg/mL): 100.0%; No. of isolates at MIC (S. pneumoniae (n = 12); MIC 1 µg/mL): 1; Cumulative % at MIC (S. pneumoniae (n = 12); MIC ≤0.015 µg/mL): 16.7%; No. of isolates at MIC (S. pneumoniae (n = 12); MIC ≤0.015 µg/mL): 2; MIC (S. pneumoniae (n = 12); S. pneumoniae IHMA N° 1831562): ≤ 0.015 µg/mL; MIC (S. pneumoniae (n = 12); S. pneumoniae IHMA N° 1902609): 0.12 µg/mL (≈ 0.401 µM); MIC (S. pneumoniae (n = 12); S. pneumoniae IHMA N° 1979675): 0.25 µg/mL (≈ 0.835 µM); MIC (S. pneumoniae (n = 12); S. pneumoniae IHMA N° 1991963): 1 µg/mL (≈ 3.34 µM); MIC (S. pneumoniae (n = 12); S. pneumoniae IHMA N° 2057487): 0.12 µg/mL (≈ 0.401 µM); MIC (S. pneumoniae (n = 12); S. pneumoniae IHMA N° 2073087): 0.25 µg/mL (≈ 0.835 µM); MIC (S. pneumoniae (n = 12); S. pneumoniae IHMA N° 2117109): 0.06 µg/mL (≈ 0.2 µM); MIC, CLSI Range (E. coli ATCC 25922): 0,06 - 0,25 µg/mL; MIC, CLSI Range (E. faecalis ATCC 29212): 0,5 - 2 µg/mL
2 | C[C@H]1COc2c(N3CCN(C)CC3)c(F)cc3c(=O)c(C(=O)O)cn1c23.C[C@H]1COc2c(N3CCN(C)CC3)c(F)cc3c(=O)c(C(=O)O)cn1c23.O [Levofloxacin, levofloxacin] | 0,5 - 4 µg/mL | 0.015 | ≤ 0.004 | 0.015 | 0.015 | 0.12 | 0.015 | 0.015 | 0.015 | 0.015 | 0.015 | 0.015 | 0.0015 | 0.015 | 0.008 | 1 | 0.5 | 0.5 | 1 | 0.5 | No. of isolates at MIC (S. pneumoniae (n = 12); MIC 0.5 µg/mL): 5; MIC (S. pneumoniae (n = 12); S. pneumoniae IHMA N° 1831562): 1 µg/mL; MIC (S. pneumoniae (n = 12); S. pneumoniae IHMA N° 1902609): 1 µg/mL; MIC (S. pneumoniae (n = 12); S. pneumoniae IHMA N° 1979675): 0.5 µg/mL; MIC (S. pneumoniae (n = 12); S. pneumoniae IHMA N° 1991963): > 32 µg/mL; MIC (S. pneumoniae (n = 12); S. pneumoniae IHMA N° 2057487): 1 µg/mL; MIC (S. pneumoniae (n = 12); S. pneumoniae IHMA N° 2073087): 1 µg/mL; MIC (S. pneumoniae (n = 12); S. pneumoniae IHMA N° 2117109): 0.5 µg/mL; MIC, CLSI Range (E. coli ATCC 25922): 0,008 - 0,06 µg/mL; MIC, CLSI Range (H. influenzae ATCC 49247): 0,008 - 0,03 µg/mL; MIC, CLSI Range (E. faecalis ATCC 29212): 0,25 - 2 µg/mL
